# Where two headings read alike, the source gives them in different places.
# Molecular target: P. falciparum apicoplast DNA polymerase (Pf-apPOL) (Plasmodium falciparum, UniProt Q8ILY1)
# Assay: Fluorescence-based high-throughput DNA polymerase assay (molecular beacon), primary screen and dose-response
# Format: biochemical
# Details: for DNA Pol: 90 min, 10 µM; for % inhibition Apo pol 10' 2.5 / % inhibition Apo pol 10' 5 / % inhibition Apo pol 10' 10 / % inhibition Apo pol 10' 20 / % inhibition Apo pol 10' 40 / % inhibition Apo pol 10' 80: read at 10'; for % inhibition Apol 90' 2.5 / % inhibition Apol 90' 5 / % inhibition Apol 90' 10 / % inhibition Apol 90' 20 / % inhibition Apol 90' 40 / % inhibition Apol 90' 80 / % inhibition ApPOL 90' 2.5 / % inhibition ApPOL 90' 5 / % inhibition ApPOL 90' 10 / % inhibition ApPOL 90' 20 / % inhibition ApPOL 90' 40 / % inhibition ApPOL 90' 80: read at 90'; for % inhibition apPOL 180' 2.5 / % inhibition apPOL 180' 5 / % inhibition apPOL 180' 10 / % inhibition apPOL 180' 20 / % inhibition apPOL 180' 40 / % inhibition apPOL 180' 80: read at 180'; for % inhibition Apo pol 5' 2.5 / % inhibition Apo pol 5' 5 / % inhibition Apo pol 5' 10 / % inhibition Apo pol 5' 20 / % inhibition Apo pol 5' 40 / % inhibition Apo pol 5' 80: read at 5'; for % inhibition Apol 40' 2.5 / % inhibition Apol 40' 5 / % inhibition Apol 40' 10 / % inhibition Apol 40' 20 / % inhibition Apol 40' 40 / % inhibition Apol 40' 80: read at 40'
# In short: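 Single-point screening used 10 µM compound with 20 nM polymerase, 20 nM hairpin substrate and 6 µM dNTPs for 90 min at 25 °C. Confirmatory titrations (2.5–80 µM) followed fluorescence at three times, and IC50 was derived from a fit including a cooperativity term n.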
# [1] = 186 hits, DNA Pol (screen value), unit not given
# [2] = 'DNA Pol' (screen value), unit not given
# P. falciparum apicoplast DNA polymerase (Pf-apPOL), sequence (Q8ILY1 entry or part of it): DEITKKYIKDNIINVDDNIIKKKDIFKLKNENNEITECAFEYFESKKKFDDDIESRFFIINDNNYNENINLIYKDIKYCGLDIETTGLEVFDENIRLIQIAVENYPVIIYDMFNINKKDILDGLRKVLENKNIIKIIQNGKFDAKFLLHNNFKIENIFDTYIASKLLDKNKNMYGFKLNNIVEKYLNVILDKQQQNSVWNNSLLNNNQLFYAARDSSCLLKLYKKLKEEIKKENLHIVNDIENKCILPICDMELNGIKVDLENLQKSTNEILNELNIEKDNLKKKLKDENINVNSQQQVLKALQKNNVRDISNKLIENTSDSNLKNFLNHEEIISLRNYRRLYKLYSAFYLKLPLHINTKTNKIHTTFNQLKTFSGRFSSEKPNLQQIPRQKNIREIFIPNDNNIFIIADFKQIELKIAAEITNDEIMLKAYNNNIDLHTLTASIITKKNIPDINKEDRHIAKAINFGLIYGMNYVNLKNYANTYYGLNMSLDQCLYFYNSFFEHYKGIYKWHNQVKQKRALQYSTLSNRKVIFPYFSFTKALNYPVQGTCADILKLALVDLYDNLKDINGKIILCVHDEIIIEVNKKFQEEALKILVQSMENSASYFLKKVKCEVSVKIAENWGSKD
compound,measurement,setting,value
"O=C1CSC2=NC3=C(CCc4ccccc43)C(c3cccs3)N12 (centres unmarked) [Molecule 59, O=C1CSC2=NC3=C(C(N12)c1cccs1)CCc1c3cccc1]",DNA Pol,[1],63
same,DNA Pol,[2],63
same,% inhibition Apo pol 10' 2.5,"DRC-1, concentration 2.5",4.043%
same,% inhibition Apo pol 10' 5,"DRC-1, concentration 5",24.0896%
same,% inhibition Apo pol 10' 10,"DRC-1, concentration 10",41.1279%
same,% inhibition Apo pol 10' 20,"DRC-1, concentration 20",53.1812%
same,% inhibition Apo pol 10' 40,"DRC-1, concentration 40",67.0288%
same,% inhibition Apo pol 10' 80,"DRC-1, concentration 80",63.2791%
same,% inhibition Apol 90' 2.5,"DRC-1, concentration 2.5",-1.656%
same,% inhibition Apol 90' 5,"DRC-1, concentration 5",10.7696%
same,% inhibition Apol 90' 10,"DRC-1, concentration 10",22.0098%
same,% inhibition Apol 90' 20,"DRC-1, concentration 20",35.5266%
same,% inhibition Apol 90' 40,"DRC-1, concentration 40",60.0258%
same,% inhibition Apol 90' 80,"DRC-1, concentration 80",67.4831%
same,% inhibition apPOL 180' 2.5,"DRC-1, concentration 2.5",-6.428%
same,% inhibition apPOL 180' 5,"DRC-1, concentration 5",-0.2424%
same,% inhibition apPOL 180' 10,"DRC-1, concentration 10",9.04%
same,% inhibition apPOL 180' 20,"DRC-1, concentration 20",18.673%
same,% inhibition apPOL 180' 40,"DRC-1, concentration 40",46.5795%
same,% inhibition apPOL 180' 80,"DRC-1, concentration 80",61.292%
same,% inhibition Apo pol 5',"DRC-2, concentration 10",28%
same,% inhibition Apol 40',"DRC-2, concentration 10",28%
same,% inhibition Apol 40',"DRC-2, concentration 40",45%
same,% inhibition ApPOL 90',"DRC-2, concentration 40",45%
same,% inhibition Apo pol 5' 2.5,"DRC-2, concentration 2.5",3.73%
same,% inhibition Apo pol 5' 5,"DRC-2, concentration 5",15%
same,% inhibition Apo pol 5' 10,"DRC-2, concentration 10",28%
same,% inhibition Apo pol 5' 20,"DRC-2, concentration 20",33%
same,% inhibition Apo pol 5' 40,"DRC-2, concentration 40",31%
same,% inhibition Apo pol 5' 80,"DRC-2, concentration 80",23%
same,% inhibition Apol 40' 2.5,"DRC-2, concentration 2.5",3%
same,% inhibition Apol 40' 5,"DRC-2, concentration 5",14%
same,% inhibition Apol 40' 10,"DRC-2, concentration 10",28%
same,% inhibition Apol 40' 20,"DRC-2, concentration 20",39%
same,% inhibition Apol 40' 40,"DRC-2, concentration 40",45%
same,% inhibition Apol 40' 80,"DRC-2, concentration 80",48%
same,% inhibition ApPOL 90' 2.5,"DRC-2, concentration 2.5",-1.13%
same,% inhibition ApPOL 90' 5,"DRC-2, concentration 5",10%
same,% inhibition ApPOL 90' 10,"DRC-2, concentration 10",22%
same,% inhibition ApPOL 90' 20,"DRC-2, concentration 20",35%
same,% inhibition ApPOL 90' 40,"DRC-2, concentration 40",45%
same,% inhibition ApPOL 90' 80,"DRC-2, concentration 80",52%
same,% inhibition apPOL 180' 2.5,"DRC-2, concentration 2.5",-8%
same,% inhibition apPOL 180' 5,"DRC-2, concentration 5",2.64%
same,% inhibition apPOL 180' 10,"DRC-2, concentration 10",11%
same,% inhibition apPOL 180' 20,"DRC-2, concentration 20",24%
same,% inhibition apPOL 180' 40,"DRC-2, concentration 40",38%
same,% inhibition apPOL 180' 80,"DRC-2, concentration 80",55%
Cc1nc(C)c2c(n1)N(CC1CCCCC1)C(=O)CC2 [KU0218606],DNA Pol,[1],50
same,DNA Pol,[2],50
same,% inhibition Apo pol 10' 2.5,"DRC-1, concentration 2.5",34.0428%
same,% inhibition Apo pol 10' 5,"DRC-1, concentration 5",39.9001%
same,% inhibition Apo pol 10' 10,"DRC-1, concentration 10",47.3749%
same,% inhibition Apo pol 10' 20,"DRC-1, concentration 20",48.9825%
same,% inhibition Apo pol 10' 40,"DRC-1, concentration 40",54.7667%
same,% inhibition Apo pol 10' 80,"DRC-1, concentration 80",55.4322%
same,% inhibition Apol 90' 2.5,"DRC-1, concentration 2.5",24.6813%
same,% inhibition Apol 90' 5,"DRC-1, concentration 5",31.9392%
same,% inhibition Apol 90' 10,"DRC-1, concentration 10",42.478%
same,% inhibition Apol 90' 20,"DRC-1, concentration 20",47.74%
same,% inhibition Apol 90' 40,"DRC-1, concentration 40",54.1171%
same,% inhibition Apol 90' 80,"DRC-1, concentration 80",56.5278%
same,% inhibition apPOL 180' 2.5,"DRC-1, concentration 2.5",16.0854%
same,% inhibition apPOL 180' 5,"DRC-1, concentration 5",24.5851%
same,% inhibition apPOL 180' 10,"DRC-1, concentration 10",35.963%
same,% inhibition apPOL 180' 20,"DRC-1, concentration 20",43.6778%
same,% inhibition apPOL 180' 40,"DRC-1, concentration 40",53.1041%
same,% inhibition apPOL 180' 80,"DRC-1, concentration 80",57.3534%
same,% inhibition Apo pol 5',"DRC-2, concentration 5",24%
same,% inhibition Apo pol 5',"DRC-2, concentration 20",27%
same,% inhibition Apo pol 5',"DRC-2, concentration 40",30%
same,% inhibition Apo pol 5',"DRC-2, concentration 80",27%
same,% inhibition Apol 40',"DRC-2, concentration 2.5",24%
same,% inhibition Apol 40',"DRC-2, concentration 5",30%
same,% inhibition Apol 40',"DRC-2, concentration 40",42%
same,% inhibition ApPOL 90',"DRC-2, concentration 10",38%
same,% inhibition ApPOL 90',"DRC-2, concentration 20",42%
same,% inhibition apPOL 180',"DRC-2, concentration 20",38%
same,% inhibition apPOL 180',"DRC-2, concentration 40",42%
same,% inhibition Apo pol 5' 2.5,"DRC-2, concentration 2.5",20%
same,% inhibition Apo pol 5' 5,"DRC-2, concentration 5",24%
same,% inhibition Apo pol 5' 10,"DRC-2, concentration 10",28%
same,% inhibition Apo pol 5' 20,"DRC-2, concentration 20",27%
same,% inhibition Apo pol 5' 40,"DRC-2, concentration 40",30%
same,% inhibition Apo pol 5' 80,"DRC-2, concentration 80",27%
same,% inhibition Apol 40' 2.5,"DRC-2, concentration 2.5",24%
same,% inhibition Apol 40' 5,"DRC-2, concentration 5",30%
same,% inhibition Apol 40' 10,"DRC-2, concentration 10",36%
same,% inhibition Apol 40' 20,"DRC-2, concentration 20",39%
same,% inhibition Apol 40' 40,"DRC-2, concentration 40",42%
same,% inhibition Apol 40' 80,"DRC-2, concentration 80",41%
same,% inhibition ApPOL 90' 2.5,"DRC-2, concentration 2.5",25%
same,% inhibition ApPOL 90' 5,"DRC-2, concentration 5",31%
same,% inhibition ApPOL 90' 10,"DRC-2, concentration 10",38%
same,% inhibition ApPOL 90' 20,"DRC-2, concentration 20",42%
same,% inhibition ApPOL 90' 40,"DRC-2, concentration 40",45%
same,% inhibition ApPOL 90' 80,"DRC-2, concentration 80",47%
same,% inhibition apPOL 180' 2.5,"DRC-2, concentration 2.5",18%
same,% inhibition apPOL 180' 5,"DRC-2, concentration 5",26%
same,% inhibition apPOL 180' 10,"DRC-2, concentration 10",34%
same,% inhibition apPOL 180' 20,"DRC-2, concentration 20",38%
same,% inhibition apPOL 180' 40,"DRC-2, concentration 40",42%
same,% inhibition apPOL 180' 80,"DRC-2, concentration 80",46%
CN(C)S(=O)(=O)Oc1ccc(-c2noc(-c3ccc(Oc4cc(Cl)cc(Cl)c4)o3)n2)cc1 [KU0263859],DNA Pol,"""DNA Pol"" of the 186 hits list (screen value)",81
same,% inhibition Apo pol 10',"DRC-1, concentration 2.5",3.819%
same,% inhibition Apo pol 10',"DRC-1, concentration 5",17.153%
same,% inhibition Apo pol 10',"DRC-1, concentration 10",39.7031%
same,% inhibition Apo pol 10',"DRC-1, concentration 20",66.3992%
same,% inhibition Apo pol 10',"DRC-1, concentration 40",79.6706%
same,% inhibition Apo pol 10',"DRC-1, concentration 80",81.4369%
same,% inhibition Apol 90',"DRC-1, concentration 2.5",1.99%
same,% inhibition Apol 90',"DRC-1, concentration 5",7.942%
same,% inhibition Apol 90',"DRC-1, concentration 10",26.2984%
same,% inhibition Apol 90',"DRC-1, concentration 20",55.9318%
same,% inhibition Apol 90',"DRC-1, concentration 40",71.2326%
same,% inhibition Apol 90',"DRC-1, concentration 80",82.3525%
same,% inhibition apPOL 180',"DRC-1, concentration 2.5",0.6453%
same,% inhibition apPOL 180',"DRC-1, concentration 5",1.378%
same,% inhibition apPOL 180',"DRC-1, concentration 10",13.3092%
same,% inhibition apPOL 180',"DRC-1, concentration 20",44.3234%
same,% inhibition apPOL 180',"DRC-1, concentration 40",58.5688%
same,% inhibition apPOL 180',"DRC-1, concentration 80",76.7438%
same,% inhibition Apo pol 5',"DRC-2, concentration 2.5",2.6%
same,% inhibition Apo pol 5',"DRC-2, concentration 5",18%
same,% inhibition Apo pol 5',"DRC-2, concentration 10",34%
same,% inhibition Apo pol 5',"DRC-2, concentration 20",47%
same,% inhibition Apo pol 5',"DRC-2, concentration 40",47%
same,% inhibition Apo pol 5',"DRC-2, concentration 80",46%
same,% inhibition Apol 40',"DRC-2, concentration 2.5",3%
same,% inhibition Apol 40',"DRC-2, concentration 5",16%
same,% inhibition Apol 40',"DRC-2, concentration 10",36%
same,% inhibition Apol 40',"DRC-2, concentration 20",57%
same,% inhibition Apol 40',"DRC-2, concentration 40",65%
same,% inhibition Apol 40',"DRC-2, concentration 80",68%
same,% inhibition ApPOL 90',"DRC-2, concentration 2.5",0.164%
same,% inhibition ApPOL 90',"DRC-2, concentration 5",12%
same,% inhibition ApPOL 90',"DRC-2, concentration 10",32%
same,% inhibition ApPOL 90',"DRC-2, concentration 20",56%
same,% inhibition ApPOL 90',"DRC-2, concentration 40",67%
same,% inhibition ApPOL 90',"DRC-2, concentration 80",73%
same,% inhibition apPOL 180',"DRC-2, concentration 2.5",-5.61%
same,% inhibition apPOL 180',"DRC-2, concentration 5",5.64%
same,% inhibition apPOL 180',"DRC-2, concentration 10",20%
same,% inhibition apPOL 180',"DRC-2, concentration 20",47%
same,% inhibition apPOL 180',"DRC-2, concentration 40",65%
same,% inhibition apPOL 180',"DRC-2, concentration 80",76%
same,DNA Pol,"primary screen value, DNA Pol",81
CCOc1nc2cccc(C(=O)OC(C)OC(=O)OC3CCCCC3)c2n1Cc1ccc(-c2ccccc2-c2nnn[nH]2)cc1 (centres unmarked) [Molecule 94],IC50,"read-out: IC50 Pf-apPOL, Table 2",7.6 ± 0.6 µM
same,IC50,"supplemental file 2, sheet IC50 nontoxic compounds, Pf-apPOL",7.66 µM

# From PMC9090415, “Discovery of small molecule inhibitors of Plasmodium falciparum apicoplast DNA polymerase” (Journal of Enzyme Inhibition and Medicinal Chemistry, 2022)
